Results as given in patent publication US20160324884A1, “TREATMENT OF DIABETES WITH PENTACYCLIC TRITERPENOID SAPONIN COMPOUNDS FROM SZECHUAN MELANDIUM ROOT” (priority 2013, published 2016).
“Also recorded” adds a separate entry of the source.

Key:
KK^Ay mice [1] = test: Effects of Wacao saponins on glycemia in KK^Ay T2DM mice (Example 2); format: in vivo; settings: for glycemia (fasting tail blood glucose), hypoglycemic activity: after 1 week; for anti-hyperglycemia effect, compounds compared with each other: 2.0 mg/kg BW Sc, 2 weeks, ranking
Source text: (§1) 80 male KK^Ay mice (12 weeks of age, License NO. SCXK (BJ) 2009-0015, Beijing Huafukang Biology Technology Co. Ltd.) and 10 male normal C57BL/6 mice (12 weeks of age, License NO. SCXK (BJ) 2009-0015, Beijing Huafukang Biology Technology Co. Ltd.) were adaptively bred for one week, and then used in the pharmacological experiment.
The animals were housed individually in wood-chip-bedded plastic cages. Germ-free and high-fat diets (Beijing Huafukang Biology Technology Co. Ltd.) were used to feed the KK^Ay mice, and the standard laboratory chows were used to feed normal C57BL/6 mice. All the animals had free access to food and water.
80 KK^Ay mice were adaptively bred for 1 week, and then randomly assigned into 8 groups: Model group, Compound (1) group, Compound (2) group, Compound (3) group, Compound (4) group, Compound (7) group, Compound (8) group and metformin group, 10 mice per group. 10 normal C57BL/6 mice were used as the control group. KK^Ay mice were fed with the high-fat diet, and the control group was fed with the normal control diet. The control and model groups were hypodermically injected with sterile water, 6 medicated groups were hypodermically injected with 6 kinds of Wacao saponins, the Compounds (1), (2), (3), (4), (7) and (8), and the positive group (metformin group) was irrigated per oral. All groups were administrated at 9 am for 2 weeks. The administrating volume is 10 ml/kg BW and the administration dosage is shown in Table3.
All mice of the fasting tail blood glucose level were measured weekly using One Touch ULTRA Glucometer (Life Scan Johnson and Johnson, USA).
Each compound of Wacao saponins was dissolved into sterile water and sterilized with filtration for Sc. The metformin was dissolved into sterile water for lg. The control and model group mice were injected with sterile water, Sc. All the animals were treated at 9 am for 2 weeks.
Overnight fasting tail blood glucose level was measured weekly using One Touch ULTRA Glucometer and measured for twice.
Each group was administrated for 2 weeks (14 days) and then the experiment was terminated.
Results are expressed as means±SD. Statistical analysis were analyzed by using SPSS 10.0 software. Data were evaluated with analysis of variance.

T2DM rats [2] = test: Glycosylated serum protein (GSP) and liver and muscle glycogen in T2DM rats (Example 5); format: in vivo, SD rats; settings: 4.0 mg/kg Sc vs glucobay 20 mg/kg lg
Source text: (§2) 50 SD rats were adaptively bred for 1 week, and then randomly assigned into 5 groups: The control group, model group, Compound (1) group, Compound (2) group and glucobay group (the positive group), 10 rats per group. All the animals were in a standard laboratory diet. Control and model group animals were hypodermically injected with sterile water, test compound treatment groups were subcutaneously injected with the Compounds (1) and (2), and the positive group was administrated glucobay solution by gavage. All the animals were administrated at 9 am for 2 weeks, and the dose volume is 10 ml/kg BW.
(§3) The Compounds (1) and (2) were dissolved into sterile water, and sterilized with filtration, Sc. Glucobay was dissolved into sterile water, lg. Animals in the control and model groups were injected with sterile water (10 ml/kg BW), Sc. All the animals were treated at 9 am for 2 weeks (14 days).
All rats except the control group were administrated intragastrically with the high-fat emulsion (10 ml/kg) and weighed the body weight weekly. After weeks of administration, rats were intraperitoneally injected with streptozotocin (STZ, dissolved in citric acid-citrate sodium solution, pH 4.2, freshly prepared and used instantly, and store away from light) (30mg/kg). 4 days later, blood glucose level in rats was measured by tail blood test. […]

KK^Ay mice [3] = test: Hepatic and muscle glycogen in KK^Ay mice (Example 3); format: in vivo; settings: 2.0 mg/kg Sc, after 2 weeks, vs model group
Source text: (§4) 60 KK^Ay mice were adaptively bred for 1 week, and then randomly assigned into 6 groups: Model group, Compound (1) group, Compound (2) group, Compound (3) group, Compound (4) group, and metformin group, 10 mice per group. 10 normal C57BL/6 mice were used for the control group. KK^Ay mice were in a high-fat diet, and the control normal mice were in a normal control diet. The control and model groups were hypodermically injected with sterile water, the 6 medicated groups mice were subcutaneously injected with […] Wacao saponins, (Compounds (1), (2), (3) and (4)) respectively, and the positive group was administered metformin by gavage. All mice were administrated at 9 am for 2 weeks and the administration volume is 10 ml/kg BW.
(§5) The body weight, food and water intake of each mouse was measured and recorded weekly throughout the course of the experiment. At the end of the experiment, collected the blood and separated serum, fasting blood glucose, insulin levels and insulin sensitivity index (ISI) were measured or calculated in each group. Liver, skeletal muscles of mice in each group were taken and weighed for detecting glycogen levels of the hepatic and muscles after mice being killed.
(§6) Compound (1), (2), (3) and (4) were respectively dissolved into sterile water, and sterilized with filtration for Sc. to the medication groups. The metformin was dissolved into sterile water for lg. to the positive control group. Control and model groups animals were injected with sterile water (10 ml/kg BW), Sc. All the animals were treated daily at 9 am for 2 weeks (14 days).
(§7) Blood detection: Blood glucose was measured weekly. Overnight fasting glycemia level was measured with One Touch ULTRA Glucometer for the tail blood test. At the end of the experiment, blood serum was collected for measuring levels of fasting blood glucose and insulin, and the insulin sensitivity index (ISI) was calculated. At the same time, hepatic tissues and skeletal muscles of mice were taken out to determine levels of hepatic and muscle glycogen by detection kits.

normal ICR mice = test: Glycemia in normal ICR mice (Example 4); format: in vivo; settings: 2.0 mg/kg Sc, after 2 weeks, vs control group
Source text: 40 male ICR mice (20-22g, License NO. SCXK (BJ) 2011-0004, Beijing SPF Experimental Animal Technology Co. Ltd.) were adaptively bred for one week, and then used in the following experiment.
Animals were housed individually in wood-chip-bedded plastic cages and fed the standard laboratory chow. All the animals had ad libitum access to food and water.
40 ICR mice were adaptively bred for 1 week, and then randomly assigned into 4 groups: Model, Compound (1), Compound (2) and metformin group, 10 mice per group. All the animals were fed with normal food. Mice in the control group were hypodermically injected with sterile water. The treated groups were subcutaneously injected with Compounds (1) and (2), respectively. And the positive group was administrated metformin by gavage. All the animals were administrated at 9 am for 2 weeks, and the dose volume is 10 ml/kg BW.
Compound (1) and (2) were respectively dissolved into sterile water, and sterilized with filtration for Sc. The metformin was dissolved into sterile water for lg. to the positive control group. Mice in the control group were injected with sterile water (10 ml/kg BW), Sc. All the animals were treated at 9 am for 2 weeks (14 days).
Blood detection: Blood glucose was measured weekly. Overnight fasting glycemia was measured by One Touch ULTRA Glucometer (LifeScan Johnson and Johnson, USA) for the tail blood test.
End of the experiment: After mice being administrated for 2 weeks (14 days), the experiment was terminated.

T2DM rats [4] = test: Fasting glycemia in T2DM model rats (high-fat emulsion + STZ, Example 5); format: in vivo, SD rats
Source text: 50 male SD rats (180-200 g, License NO. SCXK (BJ) 2011-0004, Beijing SPF Experimental Animal Technology Co. Ltd.) were adaptively bred for 1 week, and then used in the pharmacological experiment.
Animals were housed individually in wood-chip-bedded plastic cages and fed a standard laboratory chow. All the animals had ad libitum access to food and water.
as §2, §3
All rats except the control group were administrated intragastrically with the high-fat emulsion (10 ml/kg) and weighed the body weight weekly. After weeks of administration, rats were intraperitoneally injected with streptozotocin (STZ, dissolved in citric acid-citrate sodium solution, pH 4.2, freshly prepared and used instantly, and store away from light) (30mg/kg). 4 days later, blood glucose level in rats was measured by tail blood test. Diabetes was defined as fasting blood glucose level>11.1 mmol/Lin in this experiment.
The blood glucose level was measured before and after administration of the treatment compounds for 2 weeks, respectively. The animals were fasted overnight and tail blood samples were taken. Fasting glycemia was measured by using One Touch ULTRA Glucometer or kits.

KK^Ay mice [5] = test: Glycemia in KK^Ay mice during treatment and after withdrawal (Example 3); format: in vivo; settings: for descending rates of blood glucose: T2DM mice, 2 mg/kg, two weeks after subcutaneous injection
Source text: as §1, with “60” for “80”, “10 normal” for “10”, “male” for “male normal”, “following” for “pharmacological”
as §4, §6, §7
Termination of the experiment After administrating mice for 2 weeks (14 days), the experiment was terminated.
This experiment is to observe the anti-hyperglycemia effects of Wacao saponins on KK^Ay mice during and after the period of drug treatment, respectively.

KK^Ay mice [6] = test: Body weight, food and water intake in KK^Ay mice (Example 3); format: in vivo; settings: after 1 week, compounds 2.0 mg/kg Sc, metformin 500 mg/kg lg, vs model group
Source text: as §1, with “60” for “80”, “10 normal” for “10”, “male” for “male normal”, “following” for “pharmacological”
The animals were housed individually in wood-chip-bedded plastic cages. Germ-free and high-fat diets (Beijing Huafukang Biology Technology Co. Ltd.) were used to feed the KK^Ay mice. All the animals had free access to food and water.
as §4, §5, §6
Measurement of food and water intake: 24 hours' food and water intake were measured by gravimetry once a week. It should be paid attention to recycling leakage of small forage into the feed box to ensure the accuracy of food intake.
Determination of body weight: The body weight of mice was measured and recorded once a week.
Results are shown as means±SD. Statistical analysis data were analyzed by using SPSS 10.0 software. Data were evaluated with analysis of variance.

[7] = 2.0 mg/kg BW Sc daily, vs model group

| Compound | glycemia (fasting tail blood glucose), hypoglycemic activity (KK^Ay mice [1]; [7]) | anti-hyperglycemia effect, compounds compared with each other (KK^Ay mice [1]) | muscle glycogen level (KK^Ay mice [3]) | descending rates of blood glucose (KK^Ay mice [5]) | also measured |
| --- | --- | --- | --- | --- | --- |
| CC(=O)OC1C(OC(=O)/C=C\c2ccc(C)cc2)C(C)OC(OC(=O)[C@@H]2CC(C)(C)C[C@@H]3C2[C@H](O)C[C@]2(C)C3C=C[C@@H]3[C@@]4(C)CC[C@H](OC5OC(C(=O)O)C(O)C(OC6OCC(O)C(O)C6O)C5OC5OC(CO)C(O)C(O)C5O)[C@@](C)(C=O)[C@@H]4CC[C@]32C)C1OC1OC(C)C(O)C(O)C1O (stereo partly shown) [Compound (2), sinocrassuloside VII] | then followed by Compound (2), Compound (4), Compound (3) and Compound (7) | strongest anti-hyperglycemia effect | stronger efficacy in raising levels muscle glycogen | 60% | effect on glycogen levels and GSP levels compared with glucobay (T2DM rats [2]): better effect on up-regulating of glycogen levels and down-regulating of GSP levels; also recorded: superior to that of glucobay; also recorded: stronger than glucobay; glycemia level (normal ICR mice): decreased much obviously; anti-hyperglycemia efficacy compared with glucobay (T2DM rats [4]; 4.0 mg/kg Sc vs glucobay 20 mg/kg lg, 2 weeks): stronger than glucobay; glycemia level (T2DM rats [4]; 4.0 mg/kg Sc, after 2 weeks, vs model group): significantly decreased |
| COC(=O)C1OC(O[C@H]2CC[C@]3(C)[C@H]4C=CC5[C@@H]6CC(C)(C)C[C@@H](C(=O)OC7OC(C)C(OC(=O)/C=C/c8ccc(C)cc8)C(OC(C)=O)C7OC7OC(C)C(O)C(O)C7O)C6[C@H](O)C[C@@]5(C)[C@]4(C)CC[C@H]3[C@]2(C)C=O)C(OC2CC(CO)C(O)C(O)C2O)C(OC2OCC(O)C(O)C2O)C1O (stereo partly shown) [Compound (3), sinocrassuloside VIII] | then followed by Compound (2), Compound (4), Compound (3) and Compound (7) | followed by Compound (3) and (4) (cis-trans-isomers), and Compound (7) | weaker efficacy in raising level of muscle glycogen which had no statistical significant difference compared with that of the model group | 60% |  |
| CN(C)C(=N)N=C(N)N [metformin, reference compound] |  |  |  |  | food intake (KK^Ay mice [6]): decreased obviously; glycemic level after drug withdrawal (KK^Ay mice [5]; KK^Ay mice, 2 weeks after stopping 2-week medication, vs model (untreated) group): rebounded to a high level which showed no significant difference compared with that of the model group |
| sinocrassuloside XII [Compound (7)] | then followed by Compound (2), Compound (4), Compound (3) and Compound (7) | followed by Compound (3) and (4) (cis-trans-isomers), and Compound (7) |  |  |  |
| sinocrassuloside XIII [Compound (8)] |  | no significant effect of anti-hyperglycemia compared with that of the other compounds |  |  | glycemia (fasting tail blood glucose), hypoglycemic activity (KK^Ay mice [1]; 2.0 mg/kg BW Sc daily, vs model group, 2 mg/kg): weakest hypoglycemic activity which has no significant difference compared with that of the model group; also recorded: only the trend of anti-hyperglycemia activity, but showed no statistical difference; glycemia (fasting tail blood glucose) (KK^Ay mice [1]; 2.0 mg/kg BW Sc daily, after 2 weeks, vs model group): Significant differences appeared |
